Experimental data published in patent US20180291335A1, “MODIFIED POLYNUCLEOTIDES FOR ALTERING CELL PHENOTYPE” (ModernaTX, Inc., priority 2012, published 2018).

Columns and labels:
HeLa cells [1] = experiment: Luciferase in HeLa cells using a combination of modifications; format: cell-based, human; conditions: 83 ng luciferase modified RNA, 18 to 22 hours
Protocol: To evaluate using of 2′fluoro-modified mRNA in combination with other modification a series of mRNA were transcribed using either wild-type T7 polymerase (non-fluoro-containing compounds) or using mutant T7 polymerases (fluyoro-containing compounds) as described in Example 86. All modified mRNA were tested by in vitro transfection in HeLa cells.
(§1) The day before transfection, 20,000 HeLa cells (ATCC no. CCL-2; Manassas, Va.) were harvested by treatment with Trypsin-EDTA solution (LifeTechnologies, Grand Island, N.Y.) and seeded in a total volume of 100 ul EMEM medium (supplemented with 10% FCS and 1× Glutamax) per well in a 96-well cell culture plate (Corning, Manassas, Va.). The cells were grown at […] in 5% CO2 atmosphere overnight. […] Lipofectamine 2000 (LifeTechnologies, Grand Island, N.Y.) was used as transfection reagent and 0.2 ul were diluted in 10 ul final volume of OPTI-MEM. After 5 minutes of incubation at room temperature, both solutions were combined and incubated an additional 15 minute at room temperature. Then the 20 ul combined solution was added to the 100 ul cell culture medium containing the HeLa cells and incubated at room temperature.
(§2) After 18 to 22 hours of incubation cells expressing luciferase were lysed with 100 ul of Passive Lysis Buffer (Promega, Madison, Wis.) according to manufacturer instructions. Aliquots of the lysates were transferred to white opaque polystyrene 96-well plates (Corning, Manassas, Va.) and combined with 100 ul complete luciferase assay solution (Promega, Madison, Wis.). The lysate volumes were adjusted or diluted until no more than 2 mio relative light units (RLU) per well were detected for the strongest signal producing samples and the RLUs for each chemistry tested are shown in Table 26. The plate reader was a BioTek Synergy H1 (BioTek, Winooski, Vt.). The background signal of the plates without reagent was about 200 relative light units per well.

[2] = test system: interferon-alpha (IFN-alpha); experiment: 2′Fluoro chemistries in PBMC: IFN-alpha production by ELISA; format: cell-based, human; conditions: G-CSF modified mRNA
[3] = test system: tumor necrosis factor-alpha (TNF-alpha); experiment: 2′Fluoro chemistries in PBMC: TNF-alpha production by ELISA; format: cell-based, human; conditions: G-CSF modified mRNA
HeLa cells [4] = experiment: In vitro screening in HeLa cells, luciferase modified RNA; format: cell-based, human; conditions: HeLa cells, 83 ng luciferase modified RNA, 18 to 22 hours
Protocol: as §1
as §2, with “19.” for “26.”

[5] = test system: Rabbit Reticulocyte Lysate; experiment: In vitro screening in rabbit reticulocyte lysates, luciferase mRNA translation; format: biochemical; conditions: 250 ng luciferase mRNA, 60 minutes, 30° C.
Protocol: The diluted luciferase was added to 40 ul of freshly prepared Rabbit Reticulocyte Lysate and the in vitro translation reaction was done in a standard 1.5 mL polypropylene reaction tube (Thermo Fisher Scientific, Waltham, Mass.) at 30° C. in a dry heating block. The translation assay was done with the Rabbit Reticulocyte Lysate (nuclease-treated) kit (Promega, Madison, Wis.) according to the manufacturer's instructions. The reaction buffer was supplemented with a one-to-one blend of provided amino acid stock solutions devoid of either Leucine or Methionine resulting in a reaction mix containing sufficient amounts of both amino acids to allow effective in vitro translation.
After 60 minutes of incubation, the reaction was stopped by placing the reaction tubes on ice. Aliquots of the in vitro translation reaction containing luciferase modified RNA were transferred to white opaque polystyrene 96-well plates (Corning, Manassas, Va.) and combined with 100 ul complete luciferase assay solution (Promega, Madison, Wis.). The volumes of the in vitro translation reactions were adjusted or diluted until no more than 2 mio relative light units (RLUs) per well were detected for the strongest signal producing samples and the RLUs for each chemistry tested are shown in Table 20. The plate reader was a BioTek Synergy H1 (BioTek, Winooski, Vt.). The background signal of the plates without reagent was about 200 relative light units per well.

HeLa cells [6] = experiment: G-CSF modified mRNA transfected in HeLa cells, G-CSF ELISA; format: cell-based, human; conditions: HeLa cells, combination chemistries, ELISA
Protocol: To assess the activity of all our different chemical modifications in the context of a second open reading frame, we replicated experiments previously conducted using luciferase mRNA, with human G-CSF mRNA. […] The mutant T7 polymerase was obtained commercially (Durascribe® T7 Transcription kit (Cat. No. DS010925) (Epicentre®, Madison, Wis.).
The modified RNA in Tables 27 and 28 were transfected in vitro in HeLa cells or added to rabbit reticulysates (250 ng of modified mRNA) as indicated. […] In Table 27, “NT” means not tested.

Work on “2′Fluoroguanine/5-methylcytidine/N1 methylpsuedouridine: Luciferase mRNA (SEQ ID NO: 409) modified with the named combination” yielded an RLU (HeLa cells [1]) of 235 RLU.

`CCOCc1nc2c(N)nc3ccccc3c2n1CC(C)(C)O` [Compound R-848, reference compound] was tested, and the “IFN-alpha: 3 Donor Average” value [2] was 45 pg/mL and the “TNF-alpha: 2 Donor Average” value [3] was 8,235 pg/ml.

With “5-methylcytosine/pseudouridine, test A1: Luciferase mRNA (SEQ ID NO: 409) modified with 5-methylcytosine and pseudouridine; repeated tests” the RLU (HeLa cells [4]) was 48,659 RLU, the RLU (HeLa cells [4]; test A2) was 295,824 RLU and the RLU (HeLa cells [4]; test A3) was 438,831 RLU. The RLU (HeLa cells [4]; test B1) was 317,744 RLU, the RLU (HeLa cells [4]; test B2) was 481,477 RLU and the RLU [5] was 349,398 RLU. The RLU ([5]; test A2) was 558,779 RLU, the RLU ([5]; test A3) was 413,535 RLU and the RLU ([5]; test B1) was 454,662 RLU. For the same molecule, the RLU ([5]; test B2) was 487,805 RLU, the RLU (HeLa cells [1]; listed as 5-methylcytidine/pseudouridine, test A) was 13,833 RLU and the RLU (HeLa cells [1]; listed as 5-methylcytidine/pseudouridine, test B) was 115,401 RLU.

In the case of “2′Fluoroguanine/N1-methylpsuedouridine: Luciferase mRNA (SEQ ID NO: 409) modified with the named combination”, the RLU (HeLa cells [1]) is reported as 247 RLU.

In the case of “2′Fluoroguanine/pseudouridine: Luciferase mRNA (SEQ ID NO: 409) modified with the named combination”, the RLU (HeLa cells [1]) is reported as 218 RLU.

B1: 5-methylcytidine/5-bromouridine: G-CSF mRNA (SEQ ID NO: 408) fully modified with the named combination (nucleic acid)
chain: GGGAAAUAAGAGAGAAAAGAAGAGUAAGAAGAAAUAUAAGAGCCACCAUGGCCGGUCCCGCGACCCAAAGCCCCAUGAAACUUAUGGCCCUGCAGUUGCUGCUUUGGCACUCGGCCCUCUGGACAGUCCAAGAAGCGACUCCUCUCGGACCUGCCUCAUCGUUGCCGCAGUCAUUCCUUUUGAAGUGUCUGGAGCAGGUGCGAAAGAUUCAGGGCGAUGGAGCCGCACUCCAAGAGAAGCUCUGCGCGACAUACAAACUUUGCCAUCCCGAGGAGCUCGUACUGCUCGGGCACAGCUUGGGGAUUCCCUGGGCUCCUCUCUCGUCCUGUCCGUCGCAGGCUUUGCAGUUGGCAGGGUGCCUUUCCCAGCUCCACUCCGGUUUGUUCUUGUAUCAGGGACUGCUGCAAGCCCUUGAGGGAAUCUCGCCAGAAUUGGGCCCGACGCUGGACACGUUGCAGCUCGACGUGGCGGAUUUCGCAACAACCAUCUGGCAGCAGAUGGAGGAACUGGGGAUGGCACCCGCGCUGCAGCCCACGCAGGGGGCAAUGCCGGCCUUUGCGUCCGCGUUUCAGCGCAGGGCGGGUGGAGUCCUCGUAGCGAGCCACCUUCAAUCAUUUUUGGAAGUCUCGUACCGGGUGCUGAGACAUCUUGCGCAGCCGUGAAGCGCUGCCUUCUGCGGGGCUUGCCUUCUGGCCAUGCCCUUCUUCUCUCCCUUGCACCUGUACCUCUUGGUCUUUGAAUAAAGCCUGAGUAGGAAG
modifications: 5-methylcytidine/5-bromouridine modified; Description of Artificial Sequence: Synthetic Transcript Sequence
B1 was tested, and the “G-CSF protein (pg/ml) HeLa cells” value (HeLa cells [6]) was 48,864 pg/ml, the “IFN-alpha: 3 Donor Average” value [2] was 0 pg/mL and the “TNF-alpha: 2 Donor Average” value [3] was 270 pg/mL.

B2: N4-acetylcytidine/5-bromouridine: G-CSF mRNA (SEQ ID NO: 408) fully modified with the named combination (nucleic acid)
chain: GGGAAAUAAGAGAGAAAAGAAGAGUAAGAAGAAAUAUAAGAGCCACCAUGGCCGGUCCCGCGACCCAAAGCCCCAUGAAACUUAUGGCCCUGCAGUUGCUGCUUUGGCACUCGGCCCUCUGGACAGUCCAAGAAGCGACUCCUCUCGGACCUGCCUCAUCGUUGCCGCAGUCAUUCCUUUUGAAGUGUCUGGAGCAGGUGCGAAAGAUUCAGGGCGAUGGAGCCGCACUCCAAGAGAAGCUCUGCGCGACAUACAAACUUUGCCAUCCCGAGGAGCUCGUACUGCUCGGGCACAGCUUGGGGAUUCCCUGGGCUCCUCUCUCGUCCUGUCCGUCGCAGGCUUUGCAGUUGGCAGGGUGCCUUUCCCAGCUCCACUCCGGUUUGUUCUUGUAUCAGGGACUGCUGCAAGCCCUUGAGGGAAUCUCGCCAGAAUUGGGCCCGACGCUGGACACGUUGCAGCUCGACGUGGCGGAUUUCGCAACAACCAUCUGGCAGCAGAUGGAGGAACUGGGGAUGGCACCCGCGCUGCAGCCCACGCAGGGGGCAAUGCCGGCCUUUGCGUCCGCGUUUCAGCGCAGGGCGGGUGGAGUCCUCGUAGCGAGCCACCUUCAAUCAUUUUUGGAAGUCUCGUACCGGGUGCUGAGACAUCUUGCGCAGCCGUGAAGCGCUGCCUUCUGCGGGGCUUGCCUUCUGGCCAUGCCCUUCUUCUCUCCCUUGCACCUGUACCUCUUGGUCUUUGAAUAAAGCCUGAGUAGGAAG
modifications: N4-acetylcytidine/5-bromouridine modified; Description of Artificial Sequence: Synthetic Transcript Sequence
For B2, the “G-CSF protein (pg/ml) HeLa cells” value (HeLa cells [6]) was 211,591 pg/ml, the “IFN-alpha: 3 Donor Average” value [2] was 44 pg/mL and the “TNF-alpha: 2 Donor Average” value [3] was 403 pg/mL.
